From ChEMBL document CHEMBL3774354, “Discovery of Selective Histone Deacetylase 6 Inhibitors Using the Quinazoline as the Cap for the Treatment of Cancer” (J Med Chem, 2016)
Blank lines part the entries; values can stand above or below the compound they belong to.

Assays:
Mus musculus [1] = assay: Toxicity in NOD/SCID mouse xenografted with human MV4-11 cells assessed as death at 50 mg/kg, ip q2d for 12 days; type: organism-based; conditions: in vivo, 288 h
Mus musculus [2] = assay: Toxicity in Balb/c nude mouse xenografted with human HCT116 cells assessed as death at 50 mg/kg, ip q2d for 9 days; type: organism-based, HCT-116; conditions: in vivo, 216 h
Mus musculus [3] = assay: Toxicity in Balb/c nude mouse xenografted with human HCT116 cells assessed as death at 100 mg/kg, po q2d for 8 days; type: organism-based, HCT-116; conditions: in vivo, 192 h
MV4-11 = assay: Antitumor activity against human MV4-11 cells xenografted in NOD/SCID mouse assessed as tumor mass change at 50 mg/kg, ip q2d for 12 days; type: functional
[4] = Antitumor activity against human HCT116 cells xenografted in Balb/c nude mouse assessed as tumor mass change at 50 mg/kg, ip q2d for 9 days; type: functional, HCT-116
[5] = Antitumor activity against human HCT116 cells xenografted in Balb/c nude mouse assessed as tumor mass change at 100 mg/kg, po q2d for 8 days; type: functional, HCT-116
Mus musculus [6] = assay: Toxicity in Balb/c nude mouse xenografted with human HCT116 cells assessed as change in body weight at 50 mg/kg, ip q2d for 9 days; type: organism-based, HCT-116; conditions: in vivo, 216 h
Mus musculus [7] = assay: Toxicity in Balb/c nude mouse xenografted with human HCT116 cells assessed as change in body weight at 100 mg/kg, po q2d for 8 days; type: organism-based, HCT-116; conditions: in vivo, 192 h
[8] = target: T1, Protein deacetylase HDAC6 (Homo sapiens, UniProt Q9UBN7); assay: Inhibition of HDAC6 in human HeLa cells assessed as induction of tubulin acetylation incubated for 6 hrs by cytoblot assay; type: cell-based
T1 sequence (Q9UBN7 whole entry): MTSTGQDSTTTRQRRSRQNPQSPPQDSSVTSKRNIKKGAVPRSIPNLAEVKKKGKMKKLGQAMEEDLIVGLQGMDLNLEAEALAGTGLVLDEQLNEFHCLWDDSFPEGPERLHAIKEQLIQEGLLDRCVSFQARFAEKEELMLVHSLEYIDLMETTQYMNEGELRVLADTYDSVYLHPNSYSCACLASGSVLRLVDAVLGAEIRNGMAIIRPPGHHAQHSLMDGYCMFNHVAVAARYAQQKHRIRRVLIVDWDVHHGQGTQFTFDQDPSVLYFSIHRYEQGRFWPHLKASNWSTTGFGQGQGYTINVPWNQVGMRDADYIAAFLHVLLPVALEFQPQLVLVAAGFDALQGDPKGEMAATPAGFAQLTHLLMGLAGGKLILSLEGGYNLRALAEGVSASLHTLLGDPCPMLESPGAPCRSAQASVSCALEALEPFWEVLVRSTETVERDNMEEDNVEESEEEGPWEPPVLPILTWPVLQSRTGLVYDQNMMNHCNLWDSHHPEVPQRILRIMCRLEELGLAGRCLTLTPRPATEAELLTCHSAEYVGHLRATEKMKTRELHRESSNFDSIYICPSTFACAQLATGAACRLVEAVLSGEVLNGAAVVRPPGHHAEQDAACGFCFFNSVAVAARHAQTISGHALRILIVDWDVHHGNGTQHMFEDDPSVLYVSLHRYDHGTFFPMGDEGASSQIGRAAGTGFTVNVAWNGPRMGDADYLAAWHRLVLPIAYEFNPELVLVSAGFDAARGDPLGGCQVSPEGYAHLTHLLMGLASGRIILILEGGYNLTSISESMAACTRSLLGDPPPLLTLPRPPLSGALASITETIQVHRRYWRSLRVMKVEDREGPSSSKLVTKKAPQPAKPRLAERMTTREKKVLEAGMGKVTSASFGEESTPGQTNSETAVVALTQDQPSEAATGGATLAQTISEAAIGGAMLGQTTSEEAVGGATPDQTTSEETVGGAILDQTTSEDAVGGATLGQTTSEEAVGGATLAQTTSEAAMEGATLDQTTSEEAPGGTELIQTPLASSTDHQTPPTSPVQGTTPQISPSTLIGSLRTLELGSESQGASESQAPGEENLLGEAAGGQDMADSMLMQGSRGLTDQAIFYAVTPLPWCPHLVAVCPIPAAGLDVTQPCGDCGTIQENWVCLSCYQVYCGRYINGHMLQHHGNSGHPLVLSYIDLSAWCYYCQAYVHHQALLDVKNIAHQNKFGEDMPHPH

HeLa [9] = assay: Induction of histone H3 acetylation in human HeLa cells incubated for 6 hrs by cytoblot assay; type: functional, cell-based
A-375 = assay: Antiproliferative activity against human A375 cells after 72 hrs by MTT assay; type: functional, cell-based; conditions: A-375, 72 h
HeLa [10] = assay: Antiproliferative activity against human HeLa cells after 72 hrs by MTT assay; type: functional, cell-based
Histone deacetylase 1 = Histone deacetylase 1 (Homo sapiens, UniProt Q13547)
Description: Inhibition of human recombinant HDAC1 using AMC labeled AC-peptide as substrate incubated for 1 hr by fluorescence analysis

[11] = target: T1, Protein deacetylase HDAC6
Description: Inhibition of human recombinant HDAC6 using AMC labeled AC-peptide as substrate incubated for 1 hr by fluorescence analysis

Histone deacetylase 8 = target: T2, Histone deacetylase 8 (Homo sapiens, UniProt Q9BY41)
T2 sequence (Q9BY41 whole entry): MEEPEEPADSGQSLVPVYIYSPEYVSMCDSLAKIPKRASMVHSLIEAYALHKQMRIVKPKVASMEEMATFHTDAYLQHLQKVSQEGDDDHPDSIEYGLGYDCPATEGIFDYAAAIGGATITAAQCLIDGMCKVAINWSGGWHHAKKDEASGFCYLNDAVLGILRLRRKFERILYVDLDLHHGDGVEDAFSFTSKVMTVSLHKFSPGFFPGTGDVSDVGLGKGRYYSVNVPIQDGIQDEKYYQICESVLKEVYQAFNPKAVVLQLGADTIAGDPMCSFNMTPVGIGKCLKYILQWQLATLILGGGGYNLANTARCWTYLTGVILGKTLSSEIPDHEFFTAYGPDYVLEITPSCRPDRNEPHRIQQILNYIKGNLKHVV
Description: Inhibition of human recombinant HDAC8 using AMC labeled AC-peptide as substrate incubated for 1 hr by fluorescence analysis

Ramos = assay: Antitumor activity against human Ramos cells xenografted in NOD/SCID mouse assessed as tumor mass change at 10 mg/kg, ip q2d for 6 days; type: functional
Mus musculus [12] = assay: Toxicity in NOD/SCID mouse xenografted with human Ramos cells assessed as change in body weight at 10 mg/kg, ip q2d for 6 days; conditions: in vivo, 144 h

Sequence of Histone deacetylase 1 (Q13547 whole entry): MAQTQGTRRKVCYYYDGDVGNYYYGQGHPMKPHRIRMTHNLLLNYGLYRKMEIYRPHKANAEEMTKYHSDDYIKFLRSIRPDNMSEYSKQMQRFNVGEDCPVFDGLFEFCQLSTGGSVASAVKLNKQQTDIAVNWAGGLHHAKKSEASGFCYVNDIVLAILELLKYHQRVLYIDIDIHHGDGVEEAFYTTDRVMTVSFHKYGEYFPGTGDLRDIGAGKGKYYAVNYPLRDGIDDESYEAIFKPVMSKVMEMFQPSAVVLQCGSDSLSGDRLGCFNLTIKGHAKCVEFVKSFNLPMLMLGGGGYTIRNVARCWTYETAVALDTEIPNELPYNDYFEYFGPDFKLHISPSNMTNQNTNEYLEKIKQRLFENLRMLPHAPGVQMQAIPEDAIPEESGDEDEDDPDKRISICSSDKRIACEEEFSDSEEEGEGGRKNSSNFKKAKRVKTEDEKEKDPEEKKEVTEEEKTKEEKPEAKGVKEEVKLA

EC50 [8]: 26.2 nM
EC50 (HeLa [9]): 456 nM
IC50 (A-375): 213 nM
IC50 (HeLa [10]): 171 nM
SMILES: Cc1nc(N(C)c2ccc(OCC(=O)NO)cc2)c2ccccc2n1

EC50 [8]: 50.8 nM
EC50 (HeLa [9]): 1770 nM
IC50 (A-375): 2850 nM
IC50 (HeLa [10]): 2220 nM
IC50 (Histone deacetylase 1): 264 nM
IC50 [11]: 17 nM
IC50 (Histone deacetylase 8): 2970 nM
SMILES: Cc1nc2c(c(N(C)c3ccc(OCC(=O)NO)cc3)n1)CCC2

IC50 (Histone deacetylase 1): 73 nM
IC50 [11]: > 1000 nM
IC50 (Histone deacetylase 8): > 1000 nM
SMILES: Cc1nc(N(C)c2cccc(OCCCCCC(=O)NO)c2)c2ccccc2n1

IC50 (Histone deacetylase 1): > 1000 nM
IC50 [11]: > 1000 nM
IC50 (Histone deacetylase 8): > 1000 nM
SMILES: Cc1nc(N(C)c2cccc(OCC(=O)NO)c2)c2ccccc2n1

Second part, the compound before the results:

SMILES: O=C(CCCCCCC(=O)Nc1ccccc1)NO [VORINOSTAT]
Activity (Mus musculus [1]): Non-toxic
Activity (Mus musculus [2]): Non-toxic
Activity (Mus musculus [3]): Non-toxic
Activity (MV4-11): 0%
Activity [4]: 36.6%
Activity [5]: 59.2%
Activity (Mus musculus [6]): -3%
Activity (Mus musculus [7]): -6.1%

SMILES: COc1ccc(N(C)c2nc(C)nc3ccccc23)cc1OCCCCCC(=O)NO
IC50 (Histone deacetylase 1): 160 nM
IC50 [11]: 23 nM
IC50 (Histone deacetylase 8): 1530 nM

SMILES: Cc1[nH]c2ccccc2c1CCNCc1ccc(/C=C/C(=O)NO)cc1 [PANOBINOSTAT]
Activity (Ramos): 16.6%
Activity (Mus musculus [12]): -1.9%

SMILES: Cc1nc2c(c(N(C)c3ccc(OCCCC(=O)NO)cc3)n1)CCC2
IC50 (Histone deacetylase 1): 195 nM
IC50 [11]: 40 nM
IC50 (Histone deacetylase 8): 6190 nM

SMILES: COc1ccc(N(C)c2nc(C)nc3ccccc23)cc1OCCCCC(=O)NO
IC50 (Histone deacetylase 1): 253 nM
IC50 [11]: 111 nM
